In ChEMBL document CHEMBL5096176, “AAA ATPases as therapeutic targets: Structure, functions, and small-molecule inhibitors” (Eur J Med Chem, 2021):

How the values were obtained:
[1] = Selectivity index, ratio of CC50 for MDCK cells to EC50 for Amantadine-resistant Influenza A virus (A/WSN/1933 (H1N1)) infected in MDCK cells; type: toxicity, cell-based; details: dog, read-out: Ratio CC50/EC50
Influenza A virus [2] = experiment: Antiviral activity against Amantadine -resistant Influenza A virus (A/Washington/29/2009 (H1N1)) infected in MDCK cells overexpressing ST6Gal I assessed as inhibition of viral replication by plaque assay; type: functional, organism-based
Influenza A virus [3] = experiment: Antiviral activity against Oseltamivir-resistant Influenza A virus (A/North Carolina/39/2009 (H1N1)) infected in MDCK cells over expressing ST6Gal I assessed as inhibition of viral replication by plaque assay; type: functional, organism-based
Influenza A virus [4] = experiment: Antiviral activity against Amantadine-resistant Influenza A virus (A/WSN/1933 (H1N1)) infected in MDCK cells over expressing ST6Gal I assessed as inhibition of viral replication by plaque assay; type: functional, organism-based
[5] = Selectivity index, ratio of CC50 for MDCK cells to EC50 for Amantadine-resistant Influenza A virus (A/Washington/29/2009 (H1N1)) infected in MDCK cells; type: toxicity, cell-based; details: dog, read-out: Ratio CC50/EC50

Cc1cc(OCc2nnc(SC3CCCC3)n2-c2cccnc2)ccc1-c1ccc(S(C)(=O)=O)cc1
selectivity ratio [1]: 50 | EC50 (Influenza A virus [2]): 30 nM | EC50 (Influenza A virus [3]): 30 nM | EC50 (Influenza A virus [4]): 30 nM | selectivity ratio [5]: 50
